# Test results from ChEMBL document CHEMBL1127275, “Peptide based P21RAS farnesyl transferase inhibitors: systematic modification of the tetrapeptide CA1A2X motif” (Bioorg Med Chem Lett, 1994).
# Target: Protein farnesyltransferase (Rattus norvegicus, UniProt Q02293+Q04631)
# Assay: In vitro inhibitory concentration evaluated against P21ras Farnesyl transferase
# Type: protein-complex assay
row,IC50 [µM],Structure (SMILES)
1,0.696,CSCC[C@H](NC(=O)[C@@H](NC(=O)[C@@H](NC(=O)[C@@H](N)CS)C(C)C)c1ccccc1)C(=O)O
2,0.4,CC(C)[C@H](NC(=O)[C@@H](N)CS)C(=O)N[C@@H](Cc1ccccc1)C(=O)N[C@@H](Cc1ccccc1)C(=O)O
3,6.8,CSCC[C@H](NC(=O)[C@H](Cc1ccccc1)NC(=O)[C@@H](NC(=O)[C@@H](N)Cc1cnc[nH]1)C(C)C)C(=O)O
4,0.126,CSCC[C@H](NC(=O)[C@H](Cc1ccccc1)NC[C@@H](NC(=O)[C@@H](N)CS)C(C)C)C(=O)O
5,2.7,CSCC[C@H](NC(=O)[C@H](Cc1ccccc1)NC(=O)[C@@H](NC(=O)[C@@H](N)CCS)C(C)C)C(=O)O (stereo in doubt; form 2)
6,250,CSCC[C@H](NC(=O)[C@H](Cc1ccccc1)NC(=O)[C@@H](NC(=O)[C@@H](N)CC(=O)O)C(C)C)C(=O)O
7,0.12,CSCC[C@H](NC(=O)[C@H](CCc1ccccc1)NC(=O)[C@@H](NC(=O)[C@@H](N)CS)C(C)C)C(=O)O
8,0.95,CCCC[C@H](NC(=O)[C@H](Cc1ccccc1)NC(=O)[C@@H](NC(=O)[C@@H](N)CS)C(C)C)C(=O)O
9,0.029,CSCC[C@H](NC(=O)[C@@H](NC(=O)[C@@H](NC[C@@H](N)CS)C(C)C)C(C)C)C(=O)O
10,1.8,CSCC[C@H](NC(=O)[C@H](Cc1ccccc1)NC(=O)[C@@H](NC(=O)C[C@H](N)CS)C(C)C)C(=O)O
11,0.4,CSCC[C@H](NC(=O)[C@H](Cc1ccccc1)NC(=O)C(C)(C)NC(=O)[C@@H](N)CS)C(=O)O
12,0.012,CSCC[C@H](NC(=O)[C@H](Cc1ccc2ccccc2c1)NC(=O)[C@@H](NC(=O)[C@@H](N)CS)C(C)C)C(=O)O
13,0.241,CSCC[C@H](NC(=O)[C@H](Cc1ccccc1)NC(=O)[C@H](C)NC(=O)[C@@H](N)CS)C(=O)O
14,120,CSCC[C@H](NC(=O)[C@H](Cc1ccccc1)NC(=O)[C@@H](NC(=O)[C@@H](N)CCC(=O)O)C(C)C)C(=O)O
15,0.014,CSCC[C@H](NC(=O)[C@H](Cc1c[nH]c2ccccc12)NC(=O)[C@@H](NC(=O)[C@@H](N)CS)C(C)C)C(=O)O
16,1.4,CSCC[C@@H](C(=O)O)N(C)C(=O)[C@H](Cc1ccccc1)NC(=O)[C@@H](NC(=O)[C@@H](N)CS)C(C)C
17,0.068,CSCC[C@H](NC(=O)[C@@H](NC(=O)[C@@H](NC(=O)[C@@H](N)CS)C(C)C)C(C)C)C(=O)O
18,0.42,CN[C@@H](CS)C(=O)N[C@H](C(=O)N[C@@H](Cc1ccccc1)C(=O)N[C@@H](CCSC)C(=O)O)C(C)C
19,0.25,CSCC[C@H](NC(=O)[C@H](Cc1ccccc1)NC(=O)[C@H](C(C)C)N(C)C(=O)[C@@H](N)CS)C(=O)O
20,0.36,CSCC[C@H](NC(=O)[C@H](Cc1ccccc1)N(C)C(=O)[C@@H](NC(=O)[C@@H](N)CS)C(C)C)C(=O)O
21,1.2,CSCC[C@H](NC(=O)[C@H](Cc1ccccc1)NC(=O)C1(NC(=O)[C@@H](N)CS)CCCCC1)C(=O)O
22,0.012,CSCC[C@H](NC(=O)[C@H](Cc1ccccc1)NC(=O)[C@@H](NC[C@@H](N)CS)C(C)C)C(=O)O
23,0.017,CSCC[C@H](NC(=S)[C@H](Cc1ccccc1)NC(=O)[C@@H](NC(=O)[C@@H](N)CS)C(C)C)C(=O)O
24,0.51,CSCC[C@H](NC(=O)[C@H](Cc1ccccc1)NC(=O)[C@@H](NC(=O)[C@@H](N)CCS)C(C)C)C(=O)O (stereo in doubt; form 1)
